Our source for the EC50 values is patent publication US10987359B2, “Oxadiazepinone derivatives and methods of treating hepatitis B infections” (priority 2016, dated 2021).

Structures are written as SMILES.

In the first assay the test system is HBV. The assay is described as follows: HBV replication inhibition assay (BDNA assay) in HepG2.2.15 cells. It counts as cell-based. The settings on record: HBV replication assay (BDNA assay), HepG2.2.15 cells; read-out: DNA EC50. As to the method:
HBV replication inhibition by the disclosed compounds were determined in cells infected or transfected with HBV or cells with stably integrated HBV, such as HepG2.2.15 cells (Sells et al. 1987). In this example, HepG2.2.15 cells were maintained in cell culture medium containing 10% fetal bovine serum (FBS), Geneticin, L-glutamine, penicillin and streptomycin. HepG2.2.15 cells were seeded in 96-well plates at a density of 40,000 cells/well and were treated with serially diluted compounds at a final DMSO concentration of 0.5% either alone or in combination by adding drugs in a checker box format. Cells were incubated with compounds for three days, after which medium was removed and fresh medium containing compounds was added to cells and incubated for another three days. At day 6, supernatant was removed and treated with DNase at 37° C. for 60 minutes, followed by enzyme inactivation at 75° C. for 15 minutes. Encapsidated HBV DNA was released from the virions and covalently linked HBV polymerase by incubating in lysis buffer (Affymetrix QS0010) containing 2.5 μg proteinase K at 50° C. for 40 minutes. HBV DNA was denatured by addition of 0.2 M NaOH and detected using a branched DNA (BDNA) QuantiGene assay kit according to manufacturer recommendation (Affymetrix). HBV DNA levels were also quantified using qPCR, based on amplification of encapsidated HBV DNA extraction with QuickExtraction Solution (Epicentre Biotechnologies) and amplification of HBV DNA using HBV specific PCR probes that can hybridize to HBV DNA and a fluorescently labeled probe for quantitation. In addition, cell viability of HepG2.2.15 cells incubated with test compounds alone or in combination was determined by using CellTitre-Glo reagent according to the manufacturer protocol (Promega). The mean background signal from wells containing only culture medium was subtracted from all other samples, and percent inhibition at each compound concentration was calculated by normalizing to signals from HepG2.2.15 cells treated with 0.5% DMSO using equation E1. % inhibition=(DMSOave−Xi)/DMSOave×100% E1: […]
where DMSOave is the mean signal calculated from the wells that were treated with DMSO control (0% inhibition control) and Xi is the signal measured from the individual wells. EC50 values, effective concentrations that achieved 50% inhibitory effect, were determined by non-linear fitting using Graphpad Prism software (San Diego, Calif.) and equation E2: Y=Y min+(Y max−Y min)/(1+10(Log EC50−X)×HillSlope) E2: […]
where Y represents percent inhibition values and X represents the logarithm of compound concentrations.
Selected disclosed compounds were assayed in the HBV replication assay (BDNA assay), as described above, and a representative group of these active compounds is shown in Table 7. […] In Table 7, “A” represents 1<EC50≤100; “B” represents 100<EC50≤500; “C” represents 500<EC50≤1000; and “D” represents EC50>1000.
By EC50 is commonly meant the concentration that produces a half-maximal response. Take `CN1OC(CO)Cn2nc3c(c2C1=O)CN(C(=O)Nc1ccc(F)c(C(F)(F)F)c1)CC3` (single isomer, unassigned) [Compound 011_E2, (R*)—N-(4-fluoro-3-(trifluoromethyl)phenyl)-4-(hydroxymethyl)-2-methyl-1-oxo-1,4,5,8,9,11-hexahydropyrido[4′,3′:3,4]pyrazolo[5,1-d][1,2,5]oxadiazepine-10(2H)-carboxamide]: the half-maximal effective concentration (EC50) is 1 to 100 nM.

The same assay, now with this note: Hepatitis B virus, HepG2.2.15, HBV replication assay (BDNA assay), HepG2.2.15 cells; read-out: DNA EC50.
In the case of `C[C@@H]1Cc2nn3c(c2CN1C(=O)Nc1cc(C(F)(F)F)ccc1F)C(=O)N(C)O[C@H](CO)C3` (relative stereo) [Compound 157_D1, (4S*,9R)—N-[2-fluoro-5-(trifluoromethyl)phenyl]-4-(hydroxymethyl)-2,9-dimethyl-1-oxo-5,8,9,11-tetrahydro-4H-pyrido[2,3]pyrazolo[2,4-d][1,2,5]oxadiazepine-10-carboxamide], the EC50 was in the range of 1 to 100 nM. Still for that read-out and setting: to `C[C@@H]1Cc2nn3c(c2CN1C(=O)Nc1cc(C(F)(F)F)ccc1F)C(=O)N(C)O[C@@H](CO)C3` (relative stereo) [Compound 157_D2, (4R*,9R)—N-[2-fluoro-5-(trifluoromethyl)phenyl]-4-(hydroxymethyl)-2,9-dimethyl-1-oxo-5,8,9,11-tetrahydro-4H-pyrido[2,3]pyrazolo[2,4-d][1,2,5]oxadiazepine-10-carboxamide] belongs 1 to 100 nM. The same measure, in the same setting: for `CN1OC(CO)Cn2nc3c(c2C1=O)CN(C(=O)Nc1ccc(F)c(C(F)(F)F)c1)CC3` (single isomer, unassigned) [Compound 011_E1, (S*)—N-(4-fluoro-3-(trifluoromethyl)phenyl)-4-(hydroxymethyl)-2-methyl-1-oxo-1,4,5,8,9,11-hexahydropyrido[4′,3′:3,4]pyrazolo[5,1-d][1,2,5]oxadiazepine-10(2H)-carboxamide] the value was 1 to 100 nM; for `CN1OC(CO)Cn2nc3c(c2C1=O)CN(C(=O)Nc1cc(F)c(F)c(Cl)c1)CC3` (single isomer, unassigned) [Compound 028_E1, (S*)—N-(3-chloro-4,5-difluorophenyl)-4-(hydroxymethyl)-2-methyl-1-oxo-1,4,5,8,9,11-hexahydropyrido[4′,3′:3,4]pyrazolo[5,1-d][1,2,5]oxadiazepine-10(2H)-carboxamide], 1 to 100 nM. Regarding `CN1OC(CO)Cn2nc3c(c2C1=O)CN(C(=O)Nc1ccc(F)c(Cl)c1)CC3` (single isomer, unassigned) [Compound 031_E1, (S*)—N-(3-chloro-4-fluorophenyl)-4-(hydroxymethyl)-2-methyl-1-oxo-1,4,5,8,9,11-hexahydropyrido[4′,3′:3,4]pyrazolo[5,1-d][1,2,5]oxadiazepine-10(2H)-carboxamide], the EC50 lay in the range of 1 to 100 nM. The same measure, in the same setting: for `CN1OC(CO)Cn2nc3c(c2C1=O)CN(C(=O)Nc1ccc(F)c(Br)c1)CC3` (single isomer, unassigned) [Compound 032_E1, (S*)—N-(3-bromo-4-fluorophenyl)-4-(hydroxymethyl)-2-methyl-1-oxo-1,4,5,8,9,11-hexahydropyrido[4′,3′:3,4]pyrazolo[5,1-d][1,2,5]oxadiazepine-10(2H)-carboxamide] the value was 1 to 100 nM. The same measure, in the same setting: to `CN1OC(CO)Cn2nc3c(c2C1=O)CN(C(=O)Nc1ccnc(Br)c1F)CC3` (single isomer, unassigned) [Compound 033_E1, (S*)—N-(2-bromo-3-fluoropyridin-4-yl)-4-(hydroxymethyl)-2-methyl-1-oxo-1,4,5,8,9,11-hexahydropyrido[4′,3′:3,4]pyrazolo[5,1-d][1,2,5]oxadiazepine-10(2H)-carboxamide] belongs 1 to 100 nM; to `CN1OC(CO)Cn2nc3c(c2C1=O)CN(C(=O)Nc1ccc(F)c(C#N)c1)CC3` (single isomer, unassigned) [Compound 034_E1, (S*)—N-(3-cyano-4-fluorophenyl)-4-(hydroxymethyl)-2-methyl-1-oxo-1,4,5,8,9,11-hexahydropyrido[4′,3′:3,4]pyrazolo[5,1-d][1,2,5]oxadiazepine-10(2H)-carboxamide], 1 to 100 nM; to `Cc1cc(NC(=O)N2CCc3nn4c(c3C2)C(=O)N(C)OC(CO)C4)ccc1F` (single isomer, unassigned) [Compound 035_E1, (S*)—N-(4-fluoro-3-methylphenyl)-4-(hydroxymethyl)-2-methyl-1-oxo-1,4,5,8,9,11-hexahydropyrido[4′,3′:3,4]pyrazolo[5,1-d][1,2,5]oxadiazepine-10(2H)-carboxamide], 1 to 100 nM. Same read-out and setting: for `CN1OC(CF)Cn2nc3c(c2C1=O)CN(C(=O)Nc1cccc(Cl)c1)CC3` (single isomer, unassigned) [Compound 037_E1, (S*)—N-(3-chlorophenyl)-4-(fluoromethyl)-2-methyl-1-oxo-1,4,5,8,9,11-hexahydropyrido[4′,3′:3,4]pyrazolo[5,1-d][1,2,5]oxadiazepine-10(2H)-carboxamide] the value was 1 to 100 nM; for `CN1OC(CF)Cn2nc3c(c2C1=O)CN(C(=O)Nc1ccc(F)c(Cl)c1)CC3` (single isomer, unassigned) [Compound 038_E1, (S*)—N-(3-chloro-4-fluorophenyl)-4-(fluoromethyl)-2-methyl-1-oxo-1,4,5,8,9,11-hexahydropyrido[4′,3′:3,4]pyrazolo[5,1-d][1,2,5]oxadiazepine-10(2H)-carboxamide], 1 to 100 nM; for `CN1OC(CF)Cn2nc3c(c2C1=O)CN(C(=O)Nc1ccc(F)c(C(F)(F)F)c1)CC3` (single isomer, unassigned) [Compound 039_E1, (S*)—N-(4-fluoro-3-(trifluoromethyl)phenyl)-4-(fluoromethyl)-2-methyl-1-oxo-1,4,5,8,9,11-hexahydropyrido[4′,3′:3,4]pyrazolo[5,1-d][1,2,5]oxadiazepine-10(2H)-carboxamide], 1 to 100 nM. As to `CN1OC(CF)Cn2nc3c(c2C1=O)CN(C(=O)Nc1ccc(F)c(Br)c1)CC3` (single isomer, unassigned) [Compound 040_E1, (S*)—N-(3-bromo-4-fluorophenyl)-4-(fluoromethyl)-2-methyl-1-oxo-1,4,5,8,9,11-hexahydropyrido[4′,3′:3,4]pyrazolo[5,1-d][1,2,5]oxadiazepine-10(2H)-carboxamide], the EC50 lay within 1 to 100 nM. The same measure, in the same setting: for `CN1OC(CF)Cn2nc3c(c2C1=O)CN(C(=O)Nc1ccnc(Br)c1F)CC3` (single isomer, unassigned) [Compound 041_E1, (S*)—N-(2-bromo-3-fluoropyridin-4-yl)-4-(fluoromethyl)-2-methyl-1-oxo-1,4,5,8,9,11-hexahydropyrido[4′,3′:3,4]pyrazolo[5,1-d][1,2,5]oxadiazepine-10(2H)-carboxamide] the value was 1 to 100 nM.

Take `CN1OC(CF)Cn2nc3c(c2C1=O)CN(C(=O)Nc1ccc(F)c(C#N)c1)CC3` (single isomer, unassigned) [Compound 042_E1, (S*)—N-(3-cyano-4-fluorophenyl)-4-(fluoromethyl)-2-methyl-1-oxo-1,4,5,8,9,11-hexahydropyrido[4′,3′:3,4]pyrazolo[5,1-d][1,2,5]oxadiazepine-10(2H)-carboxamide]: the EC50 lay in the range of 1 to 100 nM. The same measure, in the same setting: to `Cc1cc(NC(=O)N2CCc3nn4c(c3C2)C(=O)N(C)OC(CF)C4)ccc1F` (single isomer, unassigned) [Compound 043_E1, (S*)—N-(4-fluoro-3-methylphenyl)-4-(fluoromethyl)-2-methyl-1-oxo-1,4,5,8,9,11-hexahydropyrido[4′,3′:3,4]pyrazolo[5,1-d][1,2,5]oxadiazepine-10(2H)-carboxamide] belongs 1 to 100 nM. As to `CN1OC(CF)Cn2nc3c(c2C1=O)CN(C(=O)Nc1cc(F)c(F)c(Cl)c1)CC3` (single isomer, unassigned) [Compound 044_E1, (S*)—N-(3-chloro-4,5-difluorophenyl)-4-(fluoromethyl)-2-methyl-1-oxo-1,4,5,8,9,11-hexahydropyrido[4′,3′:3,4]pyrazolo[5,1-d][1,2,5]oxadiazepine-10(2H)-carboxamide], the EC50 was 1 to 100 nM. Still for that read-out and setting: to `CCN1OC(CO)Cn2nc3c(c2C1=O)CN(C(=O)Nc1ccc(F)c(Cl)c1)CC3` (single isomer, unassigned) [Compound 060_E1, (S*)—N-(3-chloro-4-fluorophenyl)-2-ethyl-4-(hydroxymethyl)-1-oxo-1,4,5,8,9,11-hexahydropyrido[4′,3′:3,4]pyrazolo[5,1-d][1,2,5]oxadiazepine-10(2H)-carboxamide] belongs 1 to 100 nM.
